In PubChem BioAssay AID330 (DTP/NCI, 2004):
“And” between values parts separate entries of the source, which are not always exact repeats. Equal values may be shown once. Inconclusive results and toxic doses are left out.

Test system: P388 leukemia ip, CD2F1 mice, survival T/C
Experiment: NCI In Vivo Anticancer Drug Screen. Data for tumor model P388 Leukemia (intraperitoneal) in CD2F1 (CDF1) mice
Conditions: endpoint: median survival time, higher = longer survival
Summary of the method: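 Mice carrying the transplanted tumor received test compound or vehicle. Survival was recorded in each group, and the value is the treated-group measurement divided by that of the vehicle-treated control group.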

[1] = dose: 60.0 mg/kg/injection, schedule: Q01DX005 (ip), vehicle: saline with Tween-80
[2] = dose: 120.0 mg/kg/injection, schedule: Q01DX005 (ip), vehicle: saline with Tween-80

Cc1ccc(C)c2c(C#Cc3ccccc3)c3ccccc3c(C#Cc3ccccc3)c12
T/C (dose: 50.0 mg/kg/injection, schedule: Q01DX005 (ip), vehicle: Klucel (hydroxypropylcellulose) (HPC)): 96 % of control
T/C (dose: 100.0 mg/kg/injection, schedule: Q01DX005 (ip), vehicle: Klucel (hydroxypropylcellulose) (HPC)): 90 % of control
T/C (dose: 200.0 mg/kg/injection, schedule: Q01DX005 (ip), vehicle: Klucel (hydroxypropylcellulose) (HPC)): 90 % of control

CC1C(=O)OC(C(Cl)(Cl)Cl)N1C (stereo not drawn)
T/C [1]: 97 % of control
T/C [2]: 97 % of control
T/C (dose: 240.0 mg/kg/injection, schedule: Q01DX005 (ip), vehicle: saline with Tween-80): 94 % of control

CC(=O)Nc1cccc2c1CCCC2
T/C (dose: 50.0 mg/kg/injection, schedule: Q01DX005 (ip), vehicle: saline with Tween-80): 100 % of control
T/C (dose: 100.0 mg/kg/injection, schedule: Q01DX005 (ip), vehicle: saline with Tween-80): 102 % of control
T/C (dose: 200.0 mg/kg/injection, schedule: Q01DX005 (ip), vehicle: saline with Tween-80): 102 % of control

CCOC1(C2(O)CCCCC2)CC(C)=NO1 (stereo not drawn)
T/C (dose: 100.0 mg/kg/injection, schedule: Q04DX002 (ip), vehicle: Klucel (hydroxypropylcellulose) (HPC)): 104 % of control
T/C (dose: 200.0 mg/kg/injection, schedule: Q04DX002 (ip), vehicle: Klucel (hydroxypropylcellulose) (HPC)): 98 % of control
T/C (dose: 400.0 mg/kg/injection, schedule: Q04DX002 (ip), vehicle: Klucel (hydroxypropylcellulose) (HPC)): 102 % of control

Cc1ccc(S(=O)(=O)NC(CC(N)=O)C(=O)O)cc1 (stereo not drawn)
T/C (dose: 25.0 mg/kg/injection, schedule: Q01DX009 (ip), vehicle: other): 101 % of control
T/C (dose: 50.0 mg/kg/injection, schedule: Q01DX009 (ip), vehicle: other): 100 % of control
T/C (dose: 100.0 mg/kg/injection, schedule: Q01DX009 (ip), vehicle: other): 101 % of control
T/C (dose: 200.0 mg/kg/injection, schedule: Q01DX009 (ip), vehicle: other): 100 % of control
T/C (dose: 400.0 mg/kg/injection, schedule: Q01DX009 (ip), vehicle: other): 98 % of control

COC(=O)C1CC23C4=C(CCC41)CCC1CN4CC(C)C(CC(OC(C)=O)C12COC(C)=O)C43O (stereo not drawn)
T/C (dose: 0.78 mg/kg/injection, schedule: Q01DX009 (ip), vehicle: suspension in saline): 108 % of control
T/C (dose: 1.56 mg/kg/injection, schedule: Q01DX009 (ip), vehicle: suspension in saline): 104 % of control
T/C (dose: 3.13 mg/kg/injection, schedule: Q01DX009 (ip), vehicle: suspension in saline): 100 % of control
T/C (dose: 6.25 mg/kg/injection, schedule: Q01DX009 (ip), vehicle: suspension in saline): 104 % of control

COc1ccc(C2c3cc4c(cc3OC(C)(O)C2C)OCO4)c(OC)c1OC (stereo not drawn)
T/C (dose: 100.0 mg/kg/injection, schedule: Q04DX002 (ip), vehicle: saline with Tween-80): 100 % of control
T/C (dose: 200.0 mg/kg/injection, schedule: Q04DX002 (ip), vehicle: saline with Tween-80): 96 % of control
T/C (dose: 400.0 mg/kg/injection, schedule: Q04DX002 (ip), vehicle: saline with Tween-80): 86 % of control

Nc1nc(N)nc(Cc2ccccc2)n1
T/C (dose: 50.0 mg/kg/injection, schedule: Q01DX009 (ip), vehicle: saline with Tween-80): 104 % of control
T/C (dose: 100.0 mg/kg/injection, schedule: Q01DX009 (ip), vehicle: saline with Tween-80): 93 % of control
T/C (dose: 200.0 mg/kg/injection, schedule: Q01DX009 (ip), vehicle: saline with Tween-80): 95 % of control

FC(F)(F)C1=C(C(F)(F)F)OP23(OCCC(CO2)O3)O1 (stereo not drawn)
T/C (dose: 50.0 mg/kg/injection, schedule: Q04DX003 (ip), vehicle: Klucel (hydroxypropylcellulose) (HPC)): 105 % of control
T/C (dose: 100.0 mg/kg/injection, schedule: Q04DX003 (ip), vehicle: Klucel (hydroxypropylcellulose) (HPC)): 108 % of control
T/C (dose: 200.0 mg/kg/injection, schedule: Q04DX003 (ip), vehicle: Klucel (hydroxypropylcellulose) (HPC)): 99 % of control
T/C (dose: 400.0 mg/kg/injection, schedule: Q04DX003 (ip), vehicle: Klucel (hydroxypropylcellulose) (HPC)): 103 % of control

CC(=O)/C(=C\c1ccc(C)cc1)C(=O)CCN(C)C
T/C (dose: 50.0 mg/kg/injection, schedule: Q01DX005 (ip), vehicle: saline): 108 % of control
T/C (dose: 100.0 mg/kg/injection, schedule: Q01DX005 (ip), vehicle: saline): 108 % of control
T/C (dose: 200.0 mg/kg/injection, schedule: Q01DX005 (ip), vehicle: saline): 111 % of control

CC1(C)N=C(N)N=C(N)N1c1ccc(OCC(=O)Nc2ccc(S(=O)(=O)F)cc2)c(Cl)c1
T/C (dose: 50.0 mg/kg/injection, schedule: Q04DX003 (ip), vehicle: saline): 159 % of control
T/C (dose: 100.0 mg/kg/injection, schedule: Q04DX003 (ip), vehicle: saline): 163 % of control and 175 % of control
T/C (dose: 200.0 mg/kg/injection, schedule: Q04DX003 (ip), vehicle: saline): 177 % of control and 190 % of control
T/C (dose: 400.0 mg/kg/injection, schedule: Q04DX003 (ip), vehicle: saline): 115 % of control

C/C=C(\CC)C(C#N)O[Si](C)(C)C (stereo not drawn)
T/C [1]: 93 % of control
T/C [2]: 98 % of control

O=C(O)C(O)C(O)C(O)C(=O)O (stereo not drawn)
T/C (dose: 50.0 mg/kg/injection, schedule: Q01DX009 (ip), vehicle: saline): 101 % of control
T/C (dose: 100.0 mg/kg/injection, schedule: Q01DX009 (ip), vehicle: saline): 107 % of control
T/C (dose: 200.0 mg/kg/injection, schedule: Q01DX009 (ip), vehicle: saline): 91 % of control

O=C1OC(Cc2ccccc2)=C(Cl)C(Cl)(Cc2ccccc2)C1Cl (stereo not drawn)
T/C (dose: 100.0 mg/kg/injection, schedule: Q01DX001 (ip), vehicle: Klucel (hydroxypropylcellulose) (HPC)): 100 % of control
T/C (dose: 200.0 mg/kg/injection, schedule: Q01DX001 (ip), vehicle: Klucel (hydroxypropylcellulose) (HPC)): 108 % of control

O=C1C(=O)N(c2ccccc2)C(=O)N1CCN1C(=O)C(=O)N(c2ccccc2)C1=O
T/C (dose: 3.75 mg/kg/injection, schedule: Q01DX005 (ip), vehicle: saline with Tween-80): 100 % of control
T/C (dose: 7.5 mg/kg/injection, schedule: Q01DX005 (ip), vehicle: saline with Tween-80): 90 % of control
T/C (dose: 15.0 mg/kg/injection, schedule: Q01DX005 (ip), vehicle: saline with Tween-80): 95 % of control
